Laboratory results taken from US20100226917A1, “METHODS FOR THE TREATMENT OF HEMATOLOGIC MALIGNANCIES” (AstraZeneca AB, priority 2007, published 2010).
One block for each molecule: values may come before it.

Assays:
[1] = tested on: tumor cells isolated from CLL patients; assay: Ex vivo cell viability (Cell Titer-Glo) of mononuclear cells isolated from CLL patient blood; type: cell-based, human; details: 48 hour treatment; for IC50: Homo sapiens
Method: Blood samples (10 mls) were collected from CLL patients and placed on ice. Whole blood was then diluted with phosphate buffered saline (PBS) (2-3 fold dilution) and carefully layered over 12 mls Ficoll-paque (GE Healthcare, Westborough, Mass.) in a 50 ml conical tube. Samples were then centrifuged at 3500 rpm for 35 minutes without break at room temperature. Plasma was removed and opaque interphase containing mononuclear cells was collected and placed into a clean conical centrifuge tube. Cells were then washed twice with PBS with 1% fetal bovine serum (FBS). Following final wash, cells were resuspended in 5˜10 mls RPMI 1640 (Invitrogen, Grand Island, N.Y.) plus 10% fetal calf serum (FCS) medium. Cells were then counted by Trypan blue exclusion method and viability and purity assessed.
Cells were then plated into 96 well plates (1×10^5 cells/well) and incubated overnight in a drug free medium. The next morning cells were treated with fludarabine (1, 3 and 10 μM), gemcitabine (0.1 and 1 μM), CHK1 inhibitor of Formula 1.1 (0.01, 0.1 and 0.5 μM) or the combination of fludarabine and CHK1 inhibitor or gemcitabine and CHK1 inhibitor. […] Following 48 hour treatment, cell viability was measured using Cell Titer-Glo® luminescent cell viability assay (Promega, Madison, Wis.).

[2] = tested on: Mec1 chronic B cell leukemia cell line; assay: Cell Titer-Glo luminescent cell viability assay, Mec1 cell line; type: cell-based; details: Homo sapiens; Mec1, 48 hour treatment
Method: (§1) Chronic B cell leukemia cell lines (JVM2 and Mec1) (American Type Culture Collection (ATCC), Manassas, Va.) were plated in 96 well plates and 24 hours later were treated with increasing concentrations of a CHK1 inhibitor (Formula 1.1). Following 48 hour treatment cell viability was measured using Cell Titer-Glo® luminescent cell viability assay (Promega, Madison, Wis.).

[3] = tested on: JVM2 chronic B cell leukemia cell line; assay: Cell Titer-Glo luminescent cell viability assay, JVM2 cell line; type: cell-based; details: Homo sapiens, JVM-2; JVM2, 48 hour treatment
Method: as §1

[4] = tested on: marrow mononuclear cells from patients with acute myelogenous leukemia; assay: Colony formation of AML patient marrow mononuclear cells in methylcellulose; type: cell-based, human; details: 30-300 nM, 48-hour incubation, colonies scored after 14 days, 9 AML patient samples
Method: Marrow mononuclear cells from 9 patients with acute myelogenous leukemia were isolated by sedimentation on Ficoll-Hypaque density gradients (English et al. Single-Step Separation of Red Blood Cells. Granulocytes and Mononuclear Leukocytes on Discontinuous Density Gradients of Ficoll-Hypaque. Journal of Immunological Methods, 5: 249-252, 1974). After removal of an aliquot for staining to determine the percentage of blasts, replicate aliquots containing 1×10^6 cells in 1 ml Improved Dulbecco's Medium containing 20% heat-inactivated fetal bovine serum, 50 units/ml penicillin G, 50 μg/ml streptomycin and 2 mM glutamine (medium A) were treated with diluent (0.2% dimethyl sulfoxide), increasing concentrations of cytarabine alone (25-300 nM), increasing concentrations of a CHK-1 inhibitor (formula 1.1) (30-300 nM), or increasing concentrations of cytarabine in the presence of 100 nM of a CHK-1 inhibitor (Formula 1.1). […] Following a 14-day incubation at 37° C., colonies containing ≧50 cells were scored on an inverted microscope using established criteria (Eaves, C. and Lambie, K. Atlas of human hematopoietic colonies. Vancouver: StemCell Technologies Inc., 1995). […]

CD20 antigen = target: T1, CD20 antigen (Homo sapiens, UniProt P11836); details: read-out: binding affinity; cited from earlier work
T1 sequence (P11836 1-297): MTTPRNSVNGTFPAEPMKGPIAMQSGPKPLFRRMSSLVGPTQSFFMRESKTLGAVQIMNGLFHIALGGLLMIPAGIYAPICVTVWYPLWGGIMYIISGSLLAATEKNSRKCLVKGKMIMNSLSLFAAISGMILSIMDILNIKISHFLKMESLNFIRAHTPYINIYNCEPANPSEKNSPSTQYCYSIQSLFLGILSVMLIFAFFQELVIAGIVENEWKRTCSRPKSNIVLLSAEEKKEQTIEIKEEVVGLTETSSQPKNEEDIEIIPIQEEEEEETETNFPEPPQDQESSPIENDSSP

[5] = newly diagnosed patient who had not received previous treatment
[6] = relapsed patient who one week prior received rituximab treatment

Molecule: Nc1nc(F)nc2c1ncn2[C@@H]1O[C@H](CO)[C@@H](O)[C@@H]1O [fludarabine]
- IC50 [1, 5]: 560 nM
- IC50 [1, 6]: 5100 nM

Molecule: Nc1ccn([C@@H]2O[C@H](CO)[C@@H](O)C2(F)F)c(=O)n1 [gemcitabine]
- response (cell viability) [1, 5]: not
- response (cell viability) [1, 6]: not

- GI50 [2]: 79 nM
- GI50 [3]: 13 nM
- IC50 [1, 6]: 11 nM
Molecule: NC(=O)Nc1cc(-c2cccc(F)c2)sc1C(=O)N[C@H]1CCCNC1 [Formula 1.1, 5-(3-Fluoro-phenyl)-3-ureido-thiophene-2-carboxylic acid (S)-piperidin-3-ylamide]
- samples showing single agent sensitivity [4]: Four out of nine samples
- response (cell viability) [1, 5]: not

Molecule: rituximab
- Kd (CD20 antigen): ~8 nM
